Test results from the kinase profiling compilation of Christmann-Franck et al. (2016).

System: SGK1 (human), O00141 [S422D]
Assay: radiometric filter-binding kinase assay, Kinase HotSpot
Conditions: compound 0.5 µM; ATP 10 µM

Chain of SGK1 (human), O00141 [S422D] (O00141 whole entry S422D, looked up): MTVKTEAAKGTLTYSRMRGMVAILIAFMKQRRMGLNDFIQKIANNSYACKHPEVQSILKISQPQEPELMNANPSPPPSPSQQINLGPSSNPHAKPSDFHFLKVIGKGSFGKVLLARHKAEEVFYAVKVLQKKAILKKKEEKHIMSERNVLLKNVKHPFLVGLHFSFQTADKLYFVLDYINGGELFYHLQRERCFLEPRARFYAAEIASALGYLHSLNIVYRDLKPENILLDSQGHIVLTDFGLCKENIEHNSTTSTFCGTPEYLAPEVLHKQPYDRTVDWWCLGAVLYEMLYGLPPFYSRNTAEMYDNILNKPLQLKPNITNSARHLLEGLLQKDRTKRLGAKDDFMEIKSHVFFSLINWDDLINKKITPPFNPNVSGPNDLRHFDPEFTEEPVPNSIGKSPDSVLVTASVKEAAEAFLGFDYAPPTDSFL

| SMILES | residual activity |
| --- | --- |
| Cc1ccc(Nc2nccc(N(C)c3ccc4c(C)n(C)nc4c3)n2)cc1S(N)(=O)=O | 125% |
| CC(C)(C)c1nc2c3ccc(F)cc3c3c(=O)[nH]ccc3c2[nH]1 | 50.9% |
| Nc1ncnc2c1c(-c1ccc(Oc3ccccc3)cc1)cn2C1CCCC1 | 103% |
| COc1cc2ncnc(N3CCN(C(=O)Nc4ccc(Oc5ccccc5)cc4)CC3)c2cc1OC | 99.8% |
| Oc1ccc(Nc2nc(-c3ccc(Cl)cc3)cs2)cc1 | 106% |
| COc1cc2ncc(-c3ccccc3)nc2cc1OC | 88.5% |
| CCN(CC)CCNC(=O)c1c(C)[nH]c(/C=C2\C(=O)Nc3ccc(Cl)cc32)c1C | 49.6% |
| O=C1NC(=O)C(c2c[nH]c3ccccc23)=C1c1c[nH]c2ccccc12 | 105% |
| CC(C)N(CCC(=O)c1ccc2ccccc2c1)Cc1ccccc1 | 101% |
| O=C1Nc2ccccc2/C1=C1\Nc2ccccc2\C1=N/O | 69.1% |
| COc1cc(Nc2c(C#N)cnc3cc(OCCCN4CCN(C)CC4)c(OC)cc23)c(Cl)cc1Cl | 126% |
| COc1ccc(C(=O)Nc2sc3c(c2C(N)=O)CCCC3)cc1OC | 98.7% |
| CCn1cnc2c(Nc3cccc(Cl)c3)nc(N[C@@H]3CCCC[C@@H]3N)nc21 | 120% |
| Cn1cnc2cc3c(Nc4cccc(Br)c4)ncnc3cc21 | 115% |
| CC(=O)O/N=C1\C(=C2\C(=O)Nc3cc(Br)ccc32)Nc2ccccc21 | 81.8% |
| CN(C)c1ccc(/C=C2\C(=O)Nc3ccccc32)cc1 | 93.1% |
| Clc1ccc(Nc2nnc(Cc3ccncc3)c3ccccc23)cc1 | 121% |
| Cn1nc2c3c(cccc31)C(=O)c1ccccc1-2 | 94.8% |
| CO[C@@H]1[C@H](N(C)C(=O)c2ccccc2)C[C@H]2O[C@]1(C)n1c3ccccc3c3c4c(c5c6ccccc6n2c5c31)C(=O)NC4 | 81.9% |
| N#Cc1c[nH]c2c[nH]/c(=N\Cc3cccnc3)cc2/c1=N\c1ccc(F)c(Cl)c1 | 93.2% |
| N#C/C(=C\c1ccc(O)c(O)c1)C(=O)NCc1ccccc1 | 103% |
| CCN(CC)C(=O)c1ccc(Nc2nc(OCC3CCCCC3)c3nc[nH]c3n2)cc1 | 84.7% |
| CC(C)n1cnc2c(Nc3cccc(Cl)c3)nc(NCCO)nc21 | 115% |
| Cn1sc(=O)n(Cc2ccccc2)c1=O | 94% |
| O=C1NC(=O)c2c1c1c3ccccc3[nH]c1n1cncc21 | 69% |
| CS(=O)(=O)CCNCc1ccc(-c2ccc3ncnc(Nc4ccc(OCc5cccc(F)c5)c(Cl)c4)c3c2)o1 | 128% |

| SMILES | residual activity |
| --- | --- |
| COc1cc2ncnc(Nc3cccc(Cl)c3)c2cc1OC | 91.3% |
| COc1ccc(CNC(=O)Nc2ncc([N+](=O)[O-])s2)cc1 | 105% |
| NC(=O)c1ccc(N(C(N)=O)c2c(F)cccc2F)nc1-c1ccc(F)cc1F | 121% |
| CNc1cc2c(Nc3cccc(Br)c3)ncnc2cn1 | 94.4% |
| CC(=O)c1ccc(N2CCOCC2)cc1O | 97.2% |
| O=C1c2ccccc2-c2nc3nnnn3nc21 | 67.2% |
| CCCCc1c(-c2ccc(OC)cc2)[nH]c2nccnc12 | 88.4% |
| CCC(=O)Nc1ccc2ncnc(Nc3cccc(Br)c3)c2c1 | 84.6% |
| COc1ccc2c(c1)c(C1=C(c3c[nH]c4ccccc34)C(=O)NC1=O)cn2CCCN(C)C | 99.5% |
| CNC(=O)c1cc(Oc2ccc(NC(=O)Nc3ccc(Cl)c(C(F)(F)F)c3)cc2)ccn1 | 95.2% |
| O=C1NC(=O)/C(=C\c2ccc3nccnc3c2)S1 | 95% |
| O=c1cc(N2CCOCC2)oc2c1ccc1ccccc12 | 98% |
| CN([C@@H](Cc1ccc(OS(=O)(=O)c2cccc3cnccc23)cc1)C(=O)N1CCN(c2ccccc2)CC1)S(=O)(=O)c1cccc2cnccc12 | 105% |
| O=C1Nc2ccc(Br)cc2/C1=C\c1cc2c([nH]1)CCCC2 | 93.4% |
| Cc1[nH]c(/C=C2\C(=O)Nc3ccc(S(=O)(=O)N(C)c4cccc(Cl)c4)cc32)c(C)c1C(=O)N1CCN(C)CC1 | 103% |
| COc1ccc(COc2ccc(Cc3cnc(N)nc3N)cc2OC)cc1 | 97.9% |
| CCN(CC)CCCCN1c2ccccc2Oc2ccc(Cl)cc21 | 99.4% |
| CO[C@H]1CC2CC[C@@H](C)[C@@](O)(O2)C(=O)C(=O)N2CCCC[C@H]2C(=O)OC([C@H](C)C[C@@H]2CC[C@@H](O)[C@H](OC)C2)CC(=O)[C@H](C)/C=C(\C)[C@@H](O)[C@@H](OC)C(=O)[C@H](C)C[C@H](C)/C=C/C=C/C=C/1C (some centres undefined) | 101% |
| O=C(c1cc2cc(O)ccc2[nH]1)c1cc2cc(O)ccc2[nH]1 | 74.2% |
| CS(=O)c1ccc(-c2nc(-c3ccc(F)cc3)c(-c3ccncc3)[nH]2)cc1 (centres undefined) | 97.3% |
| O=c1cc(N2CCNCC2)oc2c(-c3ccccc3)cccc12 | 103% |
| O=C(CCCc1ccc(-c2ccccc2F)cc1)Nc1ccc(O)cc1 | 103% |
| CC(C)c1nn(-c2c(Cl)cccc2Cl)c2nc(Cc3ccc(OCCO)cc3)nc(O)c12 | 118% |
| O=C1Nc2ccccc2/C1=C\c1c(Cl)[nH]c2ccccc12 | 116% |
| Cc1cccc(-c2nc(C(C)(C)C)[nH]c2-c2ccc3c(c2)OCO3)n1 | 99.6% |
| Nc1cccc(-c2cc3c(Oc4cccc(O)c4)ncnc3[nH]2)c1 | 101% |

| SMILES | residual activity |
| --- | --- |
| Cc1nc2cc3nc(-c4cccs4)cnc3cc2n1C | 95.9% |
| O=C1NC(=O)C(c2cn(CCCO)c3ncccc23)=C1c1cnccn1 | 91.2% |
| Cc1ccc(NC2=CC(=O)c3sc(C)nc3C2=O)cc1 | 114% |
| COc1cc2nccc(Oc3ccc(NC(=S)NC(=O)c4ccccc4C)cc3)c2cc1OC | 101% |
| CN(C)C[C@H]1CCn2c(c(C3=C(c4cn(C)c5ccccc45)C(=O)NC3=O)c3ccccc32)C1 | 72.9% |
| O=C1C(Cl)=C(N2C(=O)CCC2=O)C(=O)c2ccccc21 | 104% |
| c1ccc(-c2n[nH]c3c2oc2ccccc23)cc1 | 101% |
| CC[n+]1c(/C=C/N(C)c2ccccc2)n(-c2ccccc2)c2ccc(-c3nc4ccccc4s3)cc21 | 97.2% |
| CCN1/C(=C/C(C)=O)Sc2ccc(OC)cc21 | 121% |
| O=C(Nc1cccc(Nc2cc(Nc3cccc(C(F)(F)F)c3)ncn2)c1)C1CC1 | 94.8% |
| O=C1NC(=O)C(c2cn(CCCn3ccnc3)c3ccccc23)=C1Nc1ccccc1 | 74.9% |
| O=C(Nc1cccc(Nc2nccc(Nc3cccc(C(F)(F)F)c3)n2)c1)C1CC1 | 103% |
| O=C1Cc2c([nH]c3ccc(Br)cc23)-c2ccccc2N1 | 107% |
| Cc1cc2ncc(-c3ccccc3)nc2cc1C | 103% |
| COc1cc2ncnc(Nc3ccc(Oc4ccccc4)cc3)c2cc1OC | 103% |
| Nc1nc(Nc2ccc(S(N)(=O)=O)cc2)nn1C(=S)Nc1c(F)cccc1F | 48.7% |
| c1ccc(-c2n[nH]cc2-c2ccnc3ccccc23)nc1 | 103% |
| Cc1cncc2cccc(S(=O)(=O)N3CCCN(C(=O)CN)C[C@H]3C)c12 | 103% |
| Cn1c2ccccc2c2c3c(c4c5ccccc5n(CCC#N)c4c21)CNC3=O | 79.1% |
| O=S(=O)(c1cccc2cnccc12)N1CCCNCC1 | 96.6% |
| CCCC(=O)Oc1ccc2[nH]c(C(=O)c3cc4ccccc4[nH]3)cc2c1 | 97% |
| Cc1ccc(S(=O)(=O)/C=C/C#N)cc1 | 98.7% |
| Cc1ccc(NC(=O)c2ccc(CN3CCN(C)CC3)cc2)cc1Nc1nc(-c2cccnc2)cs1 | 111% |
| COc1cc2ncnc(Nc3ccc(OCc4ccccc4)cc3)c2cc1OC | 103% |
| CCN(CC)CCNC(=O)c1c(C)[nH]c(/C=C2\C(=O)Nc3ccc(F)cc32)c1C | 62.8% |
| CN(C)CCCn1cc(C2=C(c3c[nH]c4ccccc34)C(=O)NC2=O)c2ccccc21 | 48.6% |

| SMILES | residual activity |
| --- | --- |
| COc1ccc(Cl)cc1NC(=O)Nc1cc(C)nc2ccccc12 | 94.7% |
| NC(=O)c1cccc(-c2cc(Nc3ccc(OC(F)(F)F)cc3)ncn2)c1 | 101% |
| COc1ccc2c(c[n+](C)c3c4cc5c(cc4ccc23)OCO5)c1OC | 118% |
| CC(C)(C)c1cc(C=C(C#N)C#N)cc(Br)c1O | 95.3% |
| COc1cc2ncnc(Nc3ccc(F)c(Cl)c3)c2cc1OCCCN1CCOCC1 | 131% |
| N#CC(C#N)=C(N)/C(C#N)=C/c1ccc(O)cc1 | 96.1% |
| CCCNC(=O)Nc1ccc(Oc2ncnc3cc(OC)c(OC)cc23)cc1Cl | 96.2% |
| O=C1Nc2ccccc2/C1=C1/Nc2ccccc2/C1=N\OCCC(O)CO (centres undefined) | 51% |
| Fc1ccc(-c2nc3n(c2-c2ccncc2)CCS3)cc1 | 100% |
| Nc1nnc2[nH]c3ccccc3nc1-2 | 114% |
| CC(C)[C@H](CO)Nc1nc(Nc2cc(N)cc(Cl)c2)c2ncn(C(C)C)c2n1 | 93.1% |
| O=c1cc(-c2cccc3c2Sc2ccccc2S3)oc(N2CCOCC2)c1 | 90.6% |
| CSc1nc(-c2ccc(F)cc2)c(-c2ccnc(NC(C)c3ccccc3)c2)[nH]1 (centres undefined) | 97.3% |
| Nc1ncnc2[nH]nc(Nc3ccc(F)cc3)c12 | 91.5% |
| O=C1Cc2c([nH]c3ccc([N+](=O)[O-])cc23)-c2ccccc2N1 | 96% |
| COc1ccc(OC)c2c(=S)c3ccccc3[nH]c12 | 125% |
| Nc1nccc(-c2c(-c3ccc(F)cc3)ncn2C2CCNCC2)n1 | 97.4% |
| O=C(O)/C=C/c1cc(Br)c(Br)c(Br)c1Br | 76.7% |
| CC[C@@H](CO)Nc1nc(NCc2ccccc2)c2ncn(C(C)C)c2n1 | 120% |
| Oc1cccc(-c2nc(N3CCOCC3)c3oc4ncccc4c3n2)c1 | 100% |
| CCOC(=O)c1c(C)[nH]c(/C=C2\C(=O)Nc3ccccc32)c1C | 92% |
| O=C1NC(=O)c2c1c1c3ccccc3n3c1c1c2c2ccccc2n1C1CCC3O1 | 23.8% |
| Nc1ccc2ncnc(NCCc3ccc(Oc4ccccc4)cc3)c2c1 | 104% |
| Nc1n[nH]c2nnc(-c3c(-c4ccccc4)nn4ccccc34)cc12 | 99.9% |
| O=C1NC(=O)/C(=C/c2ccc3c(c2)OC(F)(F)O3)S1 | 102% |
| N#C/C(=C(/N)Sc1ccc(N)cc1)c1ccccc1C(F)(F)F | 102% |
